Earlier results, collected in patent US9290518B2, “Water soluble metal-organic frameworks (MOFs)” (Council of Scientific and Industrial Research, priority 2011, dated 2016).

Conditions: 25° C., 98% RH, literature

proton conductivity: 1.1×10^−3 S cm^−1
SMILES: O=C1N2CN3C(=O)N4CN5C(=O)N6CN7C(=O)N8CN9C(=O)N%10CN%11C(=O)N%12CN1C1C2N2CN%13C(=O)N(CN%14C(=O)N(CN%15C(=O)N(CN%16C(=O)N(CN%17C(=O)N(CN1C2=O)C%12C%11%17)C%10C9%16)C8C7%15)C6C5%14)C4C3%13 (stereo not shown) [cucurbit [6]uril]
